Our source for the IC50, Selectivity and GI50 values is ChEMBL document CHEMBL1131927, “The synthesis and evaluation of temperature sensitive tubulin toxins” (Bioorg Med Chem Lett, 1999).

What all share (assay type): functional
Experiment [1] deals with T1, Tubulin (Bos taurus, UniProt Q6B856+Q862L2+Q862F3). Nature of the experiment: Inhibition of tubulin polymerization activity using homogenous bovine brain tubulin at 30 degree C.
Experiment [2] has as its target T1, Tubulin. The experiment can be described thus: Inhibition of tubulin polymerization activity using homogenous bovine brain tubulin at 37 degree C.
The target in experiment [3] is T1, Tubulin. Nature of the experiment: Inhibition of tubulin polymerization activity using homogenous bovine brain tubulin at 45 degree C.
Experiment [4] can be described thus: Selectivity ratio expressed as temperature dependence at 45 Degree C to that of 30 Degree C in bovine brain tubulin.
The test system of another experiment is MCF7. Nature of the experiment: In vitro growth inhibitory activity against human neoplastic MCF-7 cell line.
The test system of a further experiment is NCI-H520. Nature of the experiment: In vitro growth inhibitory activity against human neoplastic NCI-H520 cell line.
A further experiment concerns PC-3. Nature of the experiment: In vitro growth inhibitory activity against human neoplastic PC3 cell line.

Take `COc1cc2c(c(OC)c1OC)C(c1cccc(Br)c(=O)c1)CC2` (centres undefined): the IC50 against Tubulin [1] turned out to be 32 µM; on Tubulin [2], 28.1 µM; at Tubulin [3], 22 µM. For the same compound, the Selectivity in experiment [4] came to 1.45.
Take `COc1ccc(C2CCc3cc(OC)c(OC)c(OC)c32)cc1O` (centres undefined): the GI50 with MCF7 is 10 µM; with NCI-H520, 0.1 µM; in the experiment with PC-3 it was 0.5 µM. The IC50 against Tubulin [1] was determined as 11.8 µM; against Tubulin [2] it was 10.9 µM; at Tubulin [3], 10.9 µM. Also, the Selectivity in experiment [4] turned out to be 1.1.
As for `COc1cc(C2CCc3cc(OC)c(OC)c(OC)c32)ccc1O` (centres undefined), the GI50 in the experiment on MCF7, in the experiment with NCI-H520 and in the experiment with PC-3 was more than 100 µM throughout. Also, the IC50 against Tubulin [1], against Tubulin [2] and at Tubulin [3] was 46.4 µM in each case. Besides, in experiment [4], the Selectivity stood at 0.
Consider `CNc1cccc(C2CCc3cc(OC)c(OC)c(OC)c32)cc1=O` (centres undefined), for which the IC50 at Tubulin [1] was 30.6 µM; on Tubulin [2], 23.5 µM. In addition, the Selectivity in experiment [4] was 1.3.
Regarding `COc1cc2c(c(OC)c1OC)-c1ccc(OC)c(=O)cc1[C@@H](NC(C)=O)CC2` [COLCHICINE], the GI50 in the experiment on MCF7, in the experiment with NCI-H520 and with PC-3 was less than 0.05 µM throughout.
For `CCOc1cccc(C2CCc3cc(OC)c(OC)c(OC)c32)cc1=O` (centres undefined), the IC50 at Tubulin [1] came to 26.2 µM; at Tubulin [2], 18.2 µM; at Tubulin [3] it was 18 µM. For the same compound, the Selectivity in experiment [4] came to 1.7.
For `COc1cc2c(c(OC)c1OC)C(c1cccc(OC)c(=O)c1)CC2` (centres undefined), the values for the GI50 in the experiment with MCF7, with NCI-H520 and in the experiment on PC-3 were 75 µM, 5.4 µM and 5.2 µM, respectively. In addition, the figures for the IC50 at Tubulin [1], on Tubulin [2] and at Tubulin [3] were 108 µM, 19 µM and 19 µM, respectively. The Selectivity in experiment [4] amounted to 5.7.
Regarding `COc1cc2c(c(OC)c1OC)C(c1cccc(N)c(=O)c1)CC2` (centres undefined), the figures for the IC50 against Tubulin [1], against Tubulin [2] and on Tubulin [3] were 29.5 µM, 23.6 µM and 23.6 µM, respectively. The Selectivity in experiment [4] came to 1.25.

Usually IC50 stands for the point on the concentration scale where inhibition reaches its midpoint. As a reminder, the GI50 is the concentration that inhibits growth by half. Higher therefore signals less potent growth inhibition.
